What was measured:
[1] = Monitoring of the plasma concentration of 3 octasaccharides in beagle dogs after subcutaneous administration (plasma filtration + anion-exchange HPLC); type: in vivo, male dogs of the beagle breed; conditions: 0.5 mg/kg each
Protocol: A plasma sample with a volume of between 100 and 1000 μl is withdrawn and, if appropriate, the internal standard is added to the latter.
After homogenization, the resulting solution is introduced into a 30 kD Ultrafree 05 ultrafiltration cartridge (Millipore) rinsed beforehand with 250 μl of water by centrifuging at 10 000 rev/min for 5 minutes. The plasma is introduced into the upper part of the cartridge once or twice, if the amounts to be filtered are greater than 500 μl.
The cartridge is centrifuged at 10 000 rev/min for between 1 and 2 hours and then the filtrate is withdrawn. If appropriate, the second part of the plasma to be filtered is introduced into the upper part of the cartridge and the latter is again centrifuged. The exact amount of plasma introduced will have been weighed. The cartridge is centrifuged until the protein residue in the upper part of the cartridge represents no more than approximately 10% of the initial part.
The filtrate is withdrawn and 210 μl of 3M KCl per ml of plasma filtered are added to the concentrate.
After homogenization, the cartridge is centrifuged at 10 000 rev/min for between 1 and 4 hours. The cartridge is centrifuged until the protein residue in the upper part of the cartridge represents no more than approximately 10% of the initial part.
The second filtrate is withdrawn and 210 μl of 3M KCl per ml of plasma filtered are added a second time to the concentrate.
The third filtrate is withdrawn and 250 μl of water per ml of plasma filtered are added.
The filtrates are combined and diluted 5 fold in water, and the whole is injected directly in anion-exchange HPLC. Immediately before injection, the pH of the injected solution is adjusted to 3 by addition of 1N HCl.
The filtered plasma is analyzed by anion-exchange HPLC.
The columns used are IonPAc As11 columns (Dionex), with a length of 25 cm and an internal diameter of 2 mm. The detector used is a UV spectrophotometer equipped with an array of diodes.
The whole of the […] is injected after adjustment of the pH to 3 by addition of N HCl. The flow rate chosen is 0.22 ml/min; the column temperature is 40° C.
Elution is carried out in gradient mode. The two solutions used are:
Solvent A: NaH2PO4 2.5 mM, brought to pH 2.9 by addition of H3PO4
Solvent B: NaClO4 1N, NaH2PO4 2.5 mM, brought to pH 3.0 by addition of H3PO4
The elution gradient is as follows:
T=0 min: % B=3; T=40 min: % B=60; T=60 min: % B=80
The evolution of a mixture of three octasaccharides in the blood of male dogs of the beagle breed is monitored. These 3 octasaccharides, symbolized ΔIIaIIsIsIs, ΔIsIIaIIsIs and ΔIIaIIsIsIs^1,6-anhydro, are the main affinity octasaccharides of the octasaccharide fractions of Lovenox®.
The mixture is administered subcutaneously to 3 male dogs of the beagle breed at a target dose with regard to each of these 3 constituents of 0.5 mg/kg. The administration solution is a 0.9% NaCl solution of the mixture of the 3 octasaccharides at the target concentration of 0.5 mg/ml. Blood samples of 5 ml are withdrawn at the times 0, 0.25 h, 0.5 h, 1 h, 2 h, 4 h, 6 h, 8 h, 24 h, 30 h and 48 h after administration. The blood samples withdrawn are collected in tubes containing 400 μl of a CTAD (citrate, theophylline, adenosine, dipyridamole) mixture. After homogenization, the solution is centrifuged at 3000 g at 15° C. for 15 min. The plasma supernatant is recovered and stored at −20° C. until use.
For the treatment of the plasma before HPLC injection, approximately 1 ml of plasma is withdrawn and weighed, to which 50 μl of a solution of the internal standard at a concentration of approximately 0.02 g/l are added.
The internal standard is chosen so that it is structurally as close as possible to the products to be analyzed. Its structure is given below.
The tetrasaccharide used makes it possible to correct the potentional influence of the variations in the extraction yield.
The plasma is treated and analyzed by HPLC.

ATIII = ATIII (Homo sapiens, UniProt P01008); experiment: Affinity for ATIII; type: binding
[2] = Dog 1, 0 h after subcutaneous administration
[3] = Dog 1, 0.25 h after subcutaneous administration
[4] = Dog 1, 0.5 h after subcutaneous administration
[5] = Dog 1, 1 h after subcutaneous administration
[6] = Dog 1, 2 h after subcutaneous administration
[7] = Dog 1, 4 h after subcutaneous administration
[8] = Dog 1, 6 h after subcutaneous administration
[9] = Dog 1, 8 h after subcutaneous administration
[10] = Dog 1, 24 h after subcutaneous administration
[11] = Dog 1, 30 h after subcutaneous administration
[12] = Dog 1, 48 h after subcutaneous administration
[13] = Dog 2, 0 h after subcutaneous administration
[14] = Dog 2, 0.25 h after subcutaneous administration
[15] = Dog 2, 0.5 h after subcutaneous administration
[16] = Dog 2, 1 h after subcutaneous administration
[17] = Dog 2, 2 h after subcutaneous administration
[18] = Dog 2, 4 h after subcutaneous administration
[19] = Dog 2, 6 h after subcutaneous administration
[20] = Dog 2, 8 h after subcutaneous administration
[21] = Dog 2, 24 h after subcutaneous administration
[22] = Dog 2, 30 h after subcutaneous administration
[23] = Dog 2, 48 h after subcutaneous administration
[24] = Dog 3, 0 h after subcutaneous administration
[25] = Dog 3, 0.25 h after subcutaneous administration
[26] = Dog 3, 0.5 h after subcutaneous administration
[27] = Dog 3, 1 h after subcutaneous administration
[28] = Dog 3, 2 h after subcutaneous administration
[29] = Dog 3, 4 h after subcutaneous administration
[30] = Dog 3, 6 h after subcutaneous administration
[31] = Dog 3, 8 h after subcutaneous administration
[32] = Dog 3, 24 h after subcutaneous administration
[33] = Dog 3, 30 h after subcutaneous administration
[34] = Dog 3, 48 h after subcutaneous administration

Sequence of ATIII (P01008 33-464, species assumed): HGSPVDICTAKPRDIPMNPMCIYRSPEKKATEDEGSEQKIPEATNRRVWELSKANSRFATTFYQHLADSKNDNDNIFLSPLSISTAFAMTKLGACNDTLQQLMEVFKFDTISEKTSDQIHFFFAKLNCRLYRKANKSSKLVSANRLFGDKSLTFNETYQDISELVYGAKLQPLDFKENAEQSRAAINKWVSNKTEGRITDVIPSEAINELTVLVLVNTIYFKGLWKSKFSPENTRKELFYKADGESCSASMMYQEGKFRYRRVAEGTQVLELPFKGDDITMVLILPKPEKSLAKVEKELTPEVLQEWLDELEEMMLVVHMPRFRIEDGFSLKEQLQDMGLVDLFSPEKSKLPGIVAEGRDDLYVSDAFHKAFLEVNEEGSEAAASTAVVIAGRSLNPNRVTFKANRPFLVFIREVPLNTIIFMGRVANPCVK

CC(=O)N[C@H]1[C@@H](O[C@H]2[C@H](O)[C@@H](O)[C@H](O[C@H]3[C@H](OS(=O)(=O)O)[C@@H](NS(=O)(=O)O)[C@@H](O[C@H]4[C@H](O)[C@@H](OS(=O)(=O)O)[C@H](O[C@H]5[C@H](O)[C@@H](NS(=O)(=O)O)[C@@H](O[C@H]6[C@H](O)[C@@H](OS(=O)(=O)O)[C@H](O[C@H]7[C@H](O)C(NS(=O)(=O)O)[C@@H]8OC[C@H]7O8)O[C@H]6C(=O)O)O[C@@H]5COS(=O)(=O)O)O[C@H]4C(=O)O)O[C@@H]3COS(=O)(=O)O)O[C@@H]2C(=O)O)O[C@H](COS(=O)(=O)O)[C@@H](O[C@@H]2OC(C(=O)O)=C[C@H](O)[C@H]2O)[C@@H]1O (some centres unmarked) [ΔIIaIIsIsIs^1,6-anhydro]
plasma concentration [1, 2]: 0 nM
plasma concentration [1, 3]: 50 nM
plasma concentration [1, 4]: 170 nM
plasma concentration [1, 5]: 340 nM
plasma concentration [1, 6]: 560 nM
plasma concentration [1, 7]: 440 nM
plasma concentration [1, 8]: 370 nM
plasma concentration [1, 9]: 300 nM
plasma concentration [1, 10]: 60 nM
plasma concentration [1, 11]: 30 nM
plasma concentration [1, 12]: 10 nM
plasma concentration [1, 13]: 0 nM
plasma concentration [1, 14]: 50 nM
plasma concentration [1, 15]: 100 nM
plasma concentration [1, 16]: 210 nM
plasma concentration [1, 17]: 320 nM
plasma concentration [1, 18]: 300 nM
plasma concentration [1, 19]: 370 nM
plasma concentration [1, 20]: 250 nM
plasma concentration [1, 21]: 50 nM
plasma concentration [1, 22]: 30 nM
plasma concentration [1, 23]: 10 nM
plasma concentration [1, 24]: 0 nM
plasma concentration [1, 25]: 60 nM
plasma concentration [1, 26]: 170 nM
plasma concentration [1, 27]: 240 nM
plasma concentration [1, 28]: 340 nM
plasma concentration [1, 29]: 460 nM
plasma concentration [1, 30]: 380 nM
plasma concentration [1, 31]: 300 nM
plasma concentration [1, 32]: 50 nM
plasma concentration [1, 33]: 40 nM
plasma concentration [1, 34]: 10 nM
affinity for ATIII (ATIII): high affinity for ATIII

CC(=O)NC1C(OC2C(C(=O)O)OC(OC3C(COS(=O)(=O)O)OC(OC4C(C(=O)O)OC(OC5C(COS(=O)(=O)O)OC(O)C(NS(=O)(=O)O)C5O)C(OS(=O)(=O)O)C4O)C(NS(=O)(=O)O)C3OS(=O)(=O)O)C(O)C2O)OC(COS(=O)(=O)O)C(OC2OC(C(=O)O)C(OC3OC(COS(=O)(=O)O)C(OC4OC(C(=O)O)=CC(O)C4OS(=O)(=O)O)C(O)C3NS(=O)(=O)O)C(O)C2O)C1O (centres unmarked) [ΔIsIIaIIsIs]
plasma concentration [1, 2]: 0 nM
plasma concentration [1, 3]: 10 nM
plasma concentration [1, 4]: 70 nM
plasma concentration [1, 5]: 160 nM
plasma concentration [1, 6]: 330 nM
plasma concentration [1, 7]: 270 nM
plasma concentration [1, 8]: 220 nM
plasma concentration [1, 9]: 180 nM
plasma concentration [1, 10]: 40 nM
plasma concentration [1, 11]: 20 nM
plasma concentration [1, 12]: 0 nM
plasma concentration [1, 13]: 0 nM
plasma concentration [1, 14]: 30 nM
plasma concentration [1, 15]: 60 nM
plasma concentration [1, 16]: 110 nM
plasma concentration [1, 17]: 200 nM
plasma concentration [1, 18]: 180 nM
plasma concentration [1, 19]: 230 nM
plasma concentration [1, 20]: 150 nM
plasma concentration [1, 21]: 30 nM
plasma concentration [1, 22]: 20 nM
plasma concentration [1, 23]: 0 nM
plasma concentration [1, 24]: 0 nM
plasma concentration [1, 25]: 20 nM
plasma concentration [1, 26]: 90 nM
plasma concentration [1, 27]: 130 nM
plasma concentration [1, 28]: 190 nM
plasma concentration [1, 29]: 280 nM
plasma concentration [1, 30]: 230 nM
plasma concentration [1, 31]: 190 nM
plasma concentration [1, 32]: 30 nM
plasma concentration [1, 33]: 20 nM
plasma concentration [1, 34]: 0 nM
affinity for ATIII (ATIII): high affinity for ATIII

From patent US7575930B2, “Method for analyzing oligosaccharides from blood plasma” (priority 2005, dated 2009)
